One molecule from patent US8835421B2, “Benzimidazole linked pyrrolo[2,1-c[1,4] benzodiazepine hybrids as potential antitumour agents and process for the preparation thereof” (Council of Scientific and Industrial Research, priority 2008, dated 2014) can be followed below.

As usually defined, the GI50 is the concentration at which growth is held to half of that of the control.

The subject of assay [1] is Breast cancer cell lines. Nature of the assay: NCI in vitro anticancer screen (SRB, 48 h), breast. The assay is classed as cell-based, human. As to conditions: Homo sapiens, average of six to nine cell lines, read-out: Log10 GI50 (converted). On the procedure:
(§1) Anticancer activity: In vitro biological activity studies were carried out at the National Cancer Institute (USA).
(§2) The compounds were evaluated for in vitro anticancer activity against sixty human tumour cells derived from nine cancer types (leukemia, non-small-cell lung, colon, CNS, melanoma, ovarian, prostate, and breast cancer) as shown in Table 3. For each compound, dose response curves for each cell line were measured at a minimum of five concentrations at 10 fold dilutions. A protocol of 48 h continuous drug exposure was used and a sulforhodamine B (SRB) protein assay was used to estimate cell viability or growth. The concentration causing 50% cell growth inhibition (GI50), total cell growth inhibition (TGI 0% growth) and 50% cell death (LC50, −50% growth) compared with the control was calculated. The mean graph midpoint values of log10 TGI and log10 LC50 as well as log10 GI50 for 8c, 8e, 11a, 11c and 14 are listed in Table 2.
(§3) Each cancer type represents the average of six to nine different cancer cell lines.

Assay [2] relates to calf thymus DNA (CT-DNA). Nature of the assay: Thermal denaturation studies with duplex-form calf thymus DNA. In kind it is binding. The following applies: [PBD]:[DNA] 1:5, CT-DNA 100 μM, ligand 20 μM, sodium phosphate buffer pH 7.00. How it is done:
Compounds have been subjected to thermal denaturation studies with duplex-form calf thymus DNA (CT-DNA) using an modification of a reported procedure (Newman, M. S. Carcinog-compr. Surv. 1976, 1, 203; (b) Hecht, S. S.; Loy, M.; Hoffman, Carcinog-compr. Surv. 1976, 1, 325). Working solutions in aqueous buffer (10 mM NaH2PO4/Na2HPO4, 1 mM Na2EDTA, pH 7.00+0.01) containing CT-DNA (100 μm in phosphate) and the PBD (20 μm) have been prepared by addition of concentrated PBD solutions in DMSO to obtain a fixed [PBD]/[DNA] molar ratio of 1:5. The DNA-PBD solutions have been incubated at 37° C. for 0 and 18 h prior to analysis. Samples have been, monitored at 260 nm using a Beckman DU-800 spectrophotometer fitted with high performance temperature controller, and heated at 1° C. min^−1 in the 40-110° C. range. DNA helix→coil transition temperatures (Tm) have been obtained from the maxima in the d(A260)/d T derivative plots. Drug-induced alterations in DNA melting behavior are given by: ΔTm=Tm(DNA+PBD)−Tm(DNA alone), where the Tm value for the PBD-free CT-DNA is 69.1±0.01.
The DNA binding activity for these novel C8-linked benzimidazole-PBD hybrids has been examined by thermal denaturation studies using calf thymus (CT) DNA. […] The data for the compounds 8a-g, 11a-d and 14 is included in Table 1 for comparison.

Assay [3] concerns CNS cancer cell lines. Nature of the assay: NCI in vitro anticancer screen (SRB, 48 h), CNS. In kind it is cell-based, human. As to conditions: Homo sapiens, average of six to nine cell lines, read-out: Log10 GI50 (converted). On the procedure: as §1, §2, §3
The test system of assay [4] is Colon cancer cell lines. Nature of the assay: NCI in vitro anticancer screen (SRB, 48 h), colon. The assay is classed as cell-based, human. The following applies: Homo sapiens, average of six to nine cell lines, read-out: Log10 GI50 (converted). How it is done:
as §1, §2, §3

For assay [5], the system named is Leukemia cancer cell lines. The experiment in a line: NCI in vitro anticancer screen (SRB, 48 h), leukemia. The assay is classed as cell-based, human. The following applies: Homo sapiens, average of six to nine cell lines, read-out: Log10 GI50 (converted). How it is done:
as §1, §2, §3

Assay [6] concerns Renal cancer cell lines. Nature of the assay: NCI in vitro anticancer screen (SRB, 48 h), renal. In kind it is cell-based, human. As to conditions: Homo sapiens, average of six to nine cell lines, read-out: Log10 GI50 (converted). On the procedure:
as §1, §2, §3

Assay [7] deals with Melanoma cancer cell lines. The experiment in a line: NCI in vitro anticancer screen (SRB, 48 h), melanoma. In kind it is cell-based, human. As to conditions: Homo sapiens, average of six to nine cell lines, read-out: Log10 GI50 (converted). How it is done: as §1, §2, §3
Assay [8] relates to Non-small-cell-lung cancer cell lines. Nature of the assay: NCI in vitro anticancer screen (SRB, 48 h), non-small-cell lung. The assay is classed as cell-based, human. The following applies: Homo sapiens, average of six to nine cell lines, read-out: Log10 GI50 (converted). On the procedure:
as §1, §2, §3

For assay [9], the system named is sixty human tumour cells. The experiment in a line: NCI in vitro anticancer screen (SRB, 48 h), mean graph midpoints over all cell lines. The assay is classed as cell-based. As to conditions: 48 h continuous drug exposure, SRB assay. On the procedure:
as §1, §2

The subject of assay [10] is Prostate cancer cell lines. The experiment in a line: NCI in vitro anticancer screen (SRB, 48 h), prostate. The assay is classed as cell-based, human. As to conditions: Homo sapiens, average of six to nine cell lines, read-out: Log10 GI50 (converted). How it is done:
as §1, §2, §3

In assay [11] the test system is Ovarian cancer cell lines. The experiment in a line: NCI in vitro anticancer screen (SRB, 48 h), ovarian. The assay is classed as cell-based, human. The following applies: Homo sapiens, average of six to nine cell lines, read-out: Log10 GI50 (converted). How it is done:
as §1, §2, §3

In the case of `COc1cc2c(cc1OCCCn1c(-c3ccccn3)nc3ccccc31)N=C[C@@H]1CCCN1C2=O` [Compound 11a, 7-Methoxy-8-{3-[2-(2-pyridyl)-1H-benzimidazol-1-yl]propyl}oxy-(11aS)-1,2,3,11a-tetrahydro-5H-pyrrolo[2,1-c][1,4]benzodiazepin-5-one], the concentration for 50% growth inhibition (GI50) in assay [1] was 1050 nM; in [3] it was 2510 nM; in assay [4], 1910 nM; in assay [5], 3090 nM; in [6] it was 1410 nM; in assay [7], 2190 nM. In addition, the GI50 in assay [8] is 1580 nM; in [10] it was 1350 nM; in assay [11], 1620 nM. For the same molecule, the “ΔTm after incubation at 37° C. for 0 h” value in [2] (0 h incubation at 37° C.) is 3.0 °C. The “ΔTm after incubation at 37° C. for 18 h” value in assay [2] (18 h incubation at 37° C.) came out at 4.2 °C. Besides, the “Log10LC50 mean graph midpoint (MG_MID)” value in assay [9] (50% cell death) is reported as −4.42. Besides, in [9] (50% cell growth inhibition), the “Log10GI50 mean graph midpoint (MG_MID)” value was −5.75. Also, the “Log10TGI mean graph midpoint (MG_MID)” value in assay [9] (total cell growth inhibition) is listed as −5.14.
